{"source": "paper PMC3123436", "about": "(Bioorganic & medicinal chemistry, 2011)", "key": {"[1]": {"target": "recombinant M. tuberculosis MshC (Mycobacterium tuberculosis, UniProt P9WJM9)", "sequence (P9WJM9 whole entry, looked up)": "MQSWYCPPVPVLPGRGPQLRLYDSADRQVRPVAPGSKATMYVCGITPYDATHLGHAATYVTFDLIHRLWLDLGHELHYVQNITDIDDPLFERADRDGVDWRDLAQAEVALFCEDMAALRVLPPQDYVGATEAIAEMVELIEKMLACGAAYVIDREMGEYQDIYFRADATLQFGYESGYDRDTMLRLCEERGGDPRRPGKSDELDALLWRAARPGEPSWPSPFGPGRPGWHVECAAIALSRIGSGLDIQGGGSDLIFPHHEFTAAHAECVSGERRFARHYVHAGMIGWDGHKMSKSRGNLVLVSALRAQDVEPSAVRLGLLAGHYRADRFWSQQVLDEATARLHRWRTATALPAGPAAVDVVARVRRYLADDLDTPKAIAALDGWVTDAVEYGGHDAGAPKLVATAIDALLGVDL", "type": "biochemical"}, "M. tuberculosis CDC1551": {"tested_on": "M. tuberculosis CDC1551", "assay": "96 well plate growth inhibition", "settings": "visual, 8–10 d"}, "Vero-E6 cells": {"tested_on": "Vero-E6 cells", "settings": "African green monkey, 2 d"}, "[2]": {"tested_on": "M. tuberculosis Erdman (control strain)", "assay": "96 well plate growth inhibition"}, "[3]": {"tested_on": "MSH biosynthesis in M. tuberculosis Erdman", "assay": "MSH and GlcN-Ins levels in M. tuberculosis Erdman cultured 7 d with 2", "settings": "20–75 μM 2, 7 d culture, two independent experiments"}, "M. tuberculosis Erdman": {"tested_on": "M. tuberculosis Erdman", "assay": "Inhibition of exponentially growing M. tuberculosis Erdman, 7 d flask culture"}}, "note": "Like-named read-outs stand apart in the source and are kept apart here."}
{"compound": "CCCN(CCC)CCCNC(=O)c1ccc2c(c1)N(Cc1ccc(F)cc1)C(=O)c1ccccc1[S+]2[O-]", "note": "(stereo not shown) [Compound 36]", "values": [{"measurement": "fold loss in activity compared with 21", "setting": "[1]", "result": 30, "unit": "fold"}]}
{"compound": "CN(CCCNC(=O)c1ccc2c(c1)N(Cc1ccc(F)cc1)C(=O)c1ccccc1[S+]2[O-])C1CCCCC1", "note": "(stereo not shown) [Compound 37]", "values": [{"measurement": "fold increase of IC50 / loss in activity compared to 2", "setting": "[1]", "result": "> 35", "unit": "fold"}]}
{"compound": "O=C(NCCCSC1CCCCC1)c1ccc2c(c1)N(Cc1cccc(Cl)c1)C(=O)c1ccccc1[S+]2[O-]", "note": "(stereo not shown) [Compound 6]", "values": [{"measurement": "MshC inhibition, in words", "setting": "[1]; SAR discussion", "result": "complete loss of measurable activity"}]}
{"compound": "CCN(CC)CCCNC(=O)c1ccc2c(c1)N(Cc1ccc(C)cc1C)C(=O)c1ccccc1[S+]2[O-]", "note": "(stereo not shown) [Compound 41]", "values": [{"measurement": "MshC inhibition, in words", "setting": "[1]; SAR discussion", "result": "no measurable inhibition"}]}
{"compound": "O=C(NCCN1CCCCCC1)c1ccc2c(c1)N(Cc1cccc(Cl)c1)C(=O)c1ccccc1[S+]2[O-]", "note": "(stereo not shown) [Compound 20]", "values": [{"measurement": "MIC95 (95% inhibition)", "setting": "M. tuberculosis CDC1551", "result": 110, "unit": "µM"}, {"measurement": "Vero Cell toxicity (MIC90)", "setting": "Vero-E6 cells", "result": 100, "unit": "µM"}]}
{"compound": "CC1CCCN(CCCNC(=O)c2ccc3c(c2)N(Cc2ccc(F)cc2)C(=O)c2ccccc2[S+]3[O-])C1", "note": "(stereo not shown) [Compound 35]", "values": [{"measurement": "fold less active than 3-chlorobenzyl derivative 19", "setting": "[1]", "result": 5, "unit": "fold"}]}
{"compound": "O=C(NCCCN1CCOCC1)c1ccc2c(c1)N(Cc1cccc(Cl)c1)C(=O)c1ccccc1[S+]2[O-]", "note": "(stereo not shown) [Compound 14]", "values": [{"measurement": "MshC inhibition, in words", "setting": "[1]", "result": "similarly ineffective"}]}
{"compound": "Cc1ccc(CN2C(=O)c3ccccc3S(=O)(=O)c3ccc(C(=O)NCCCN4CCOCC4)cc32)c(C)c1", "note": "[Compound 43]", "values": [{"measurement": "MshC inhibition, in words", "setting": "[1]; SAR discussion", "result": "no measurable inhibition"}]}
{"compound": "CCCCSCCCNC(=O)c1ccc2c(c1)N(Cc1cccc(Cl)c1)C(=O)c1ccccc1[S+]2[O-]", "note": "(stereo not shown) [Compound 8]", "values": [{"measurement": "MshC inhibition, in words", "setting": "[1]", "result": "complete loss of measurable activity"}]}
{"compound": "CCC1CCCCN1CCCNC(=O)c1ccc2c(c1)N(Cc1cccc(Cl)c1)C(=O)c1ccccc1[S+]2[O-]", "note": "(stereo not shown) [Compound 12]", "values": [{"measurement": "Vero Cell toxicity (MIC90)", "setting": "Vero-E6 cells", "result": 100, "unit": "µM"}]}
{"compound": "Cc1ccc(CN2C(=O)c3ccccc3[S+]([O-])c3ccc(C(=O)NCCCN(C)C4CCCCC4)cc32)c(C)c1", "note": "(stereo not shown) [Compound 40]", "values": [{"measurement": "MshC inhibition, in words", "setting": "[1]; SAR discussion", "result": "just detectable inhibition"}]}
{"compound": "CC1CCCN(CCCNC(=O)c2ccc3c(c2)N(Cc2cccc(Cl)c2)C(=O)c2ccccc2[S+]3[O-])C1", "note": "(stereo not shown) [Compound 19]", "values": [{"measurement": "Vero Cell toxicity (MIC90)", "setting": "Vero-E6 cells", "result": 100, "unit": "µM"}]}
{"compound": "O=C(NCCCN1CCOCC1)c1ccc2c(c1)N(Cc1cccc(Cl)c1)C(=O)c1ccccc1S2", "note": "[Compound 15]", "values": [{"measurement": "MshC inhibition, in words", "setting": "[1]; SAR discussion", "result": "less active than their corresponding sulfoxides"}]}
{"compound": "CN(CCCNC(=O)c1ccc2c(c1)N(Cc1cccc(Cl)c1)C(=O)c1ccccc1S2)C1CCCCC1", "note": "[Compound 5, 10-(3-Chlorobenzyl)-N-(3-(cyclohexyl(methyl)amino)-propyl)-11-oxo-10,11 dihydrodibenzo[b,f][1,4]thiazepine-8-carboxamide]", "values": [{"measurement": "MshC inhibition, in words", "setting": "[1]; SAR discussion", "result": "less active than their corresponding sulfoxides"}]}
{"compound": "CN(CCCNC(=O)c1ccc2c(c1)N(Cc1cccc(Cl)c1)C(=O)c1ccccc1[S+]2[O-])C1CCCCC1", "note": "(stereo not shown) [Compound 2, N-[3-(cyclohexylmethylamino)propyl]-10-[(3-chlorophenyl)methyl]-10,11-dihydro-11-oxo-dibenzo-[b,f][1,4]-thiazepine-8-carboxamide-5-oxide]", "values": [{"measurement": "MIC95 (95% inhibition)", "setting": "M. tuberculosis CDC1551", "result": 110, "unit": "µM"}, {"measurement": "MIC95 (95% inhibition)", "setting": "[2]", "result": "28 to 55", "unit": "µM"}, {"measurement": "increase in the level of GlcN-Ins", "setting": "[3]", "result": 9, "unit": "fold"}, {"measurement": "concentration at which inhibition of growth was apparent", "setting": "M. tuberculosis Erdman", "result": 20, "unit": "µM"}, {"measurement": "viable cells relative to day 0 inoculum", "setting": "M. tuberculosis Erdman; 50 or 75 μM, plating", "result": "one-third"}]}
{"compound": "O=C(NCCCN1CCCC1)c1ccc2c(c1)N(Cc1cccc(Cl)c1)C(=O)c1ccccc1[S+]2[O-]", "note": "(stereo not shown) [Compound 17]", "values": [{"measurement": "MIC95 (95% inhibition)", "setting": "M. tuberculosis CDC1551", "result": 220, "unit": "µM"}]}
{"compound": "Cc1ccc(CN2C(=O)c3ccccc3S(=O)(=O)c3ccc(C(=O)NCCCN4CCCC4)cc32)c(C)c1", "note": "[Compound 42]", "values": [{"measurement": "MshC inhibition, in words", "setting": "[1]; SAR discussion", "result": "just detectable inhibition"}]}
{"compound": "O=C(NCCCN1CCCC1)c1ccc2c(c1)N(Cc1cccc(Cl)c1)C(=O)c1ccccc1S2", "note": "[Compound 18]", "values": [{"measurement": "MIC95 (95% inhibition)", "setting": "M. tuberculosis CDC1551", "result": 110, "unit": "µM"}, {"measurement": "MshC inhibition, in words", "setting": "[1]; SAR discussion", "result": "less active than their corresponding sulfoxides"}]}
{"compound": "CC1CC(C)CN(CCCNC(=O)c2ccc3c(c2)N(Cc2cccc(Cl)c2)C(=O)c2ccccc2[S+]3[O-])C1", "note": "(stereo not shown) [Compound 10]", "values": [{"measurement": "MshC inhibition, in words", "setting": "[1]", "result": "less effective"}]}
